The text below walks through data of ChEMBL document CHEMBL1142818, “Identification of heteroarylenamines as a new class of antituberculosis lead molecules” (Bioorg Med Chem Lett, 2005).

Assay [1] has as its system Mycobacterium tuberculosis. Briefly: Minimum inhibitory concentration against Mycobacterium tuberculosis H37Rv pFPCA1 in green fluorescent protein microplate assay. Type of assay: functional.
Assay [2] has as its system Vero. Kind of assay: Selectivity ratio for IC50 of VERO cells to that of MIC of Mycobacterium tuberculosis H37Rv. The format is functional, Chlorocebus sabaeus.
The test system of assay [3] is Vero. Briefly: Inhibitory concentration required to produce cytotoxicity against VERO cells. The format is functional, cell-based. To be noted: Chlorocebus sabaeus.
Assay [4] has as its system Vero. Briefly: Inhibitory concentration required to produce cytotoxicity against VERO cells; d = Poor solubility prevented determination of activity. The format is functional, cell-based, Chlorocebus sabaeus.
Assay [5] relates to Vero. Briefly: Selectivity ratio for IC50 of VERO cells to that of MIC of Mycobacterium tuberculosis H37Rv; d = Poor solubility prevented determination of activity. The format is functional, cell-based. To be noted: Chlorocebus sabaeus.
Assay [6] deals with Mycobacterium tuberculosis. Briefly: Minimum inhibitory concentration against Mycobacterium tuberculosis H37Rv; Range 0.125-0.25 ug/mL. The format is functional.

Broadly, the MIC is the lowest concentration found to suppress growth. Higher therefore signals weaker potency. Usually IC50 stands for the concentration that inhibits the measured activity by half. Low readings indicate greater potency in that assay, high ones weaker potency in that assay.

In brackets after ≈: the same amount, converted by molar mass. Where only a bound is given, the exact number is not on record here.

Take `NC[C@H]1O[C@H](O[C@H]2[C@H](O)[C@@H](O[C@H]3O[C@H](CO)[C@@H](O)[C@H](N)[C@H]3O)[C@H](N)C[C@@H]2N)[C@H](O)[C@@H](O)[C@@H]1O` [KANAMYCIN]: the minimum inhibitory concentration (MIC) in assay [1] is below 0.2 µg/mL.

For `CN(C)/C=C/c1c2c(nc3ccccc13)C(=O)c1cccnc1C2=O`, the Selectivity in the assay with Vero [2] was below 0.08. For the same compound, in the assay on Vero [3], the 50% inhibitory concentration (IC50) was below 0.26 µg/mL. For the same compound, the MIC in assay [1] was determined as 3.13 µg/mL (≈ 9.5 µM).

The compound `CN(C)/C=C/c1cccc2nc3ccccc3cc12` had a minimal inhibitory concentration (MIC) in assay [1] of 21 µg/mL (≈ 84.6 µM).

Consider `CN(C)/C=C/c1ccnc2c1C(=O)c1ccccc1C2=O`, for which the Selectivity in the assay on Vero [2] is listed as 5.8. In the assay on Vero [3], it took 9.1 µg/mL (≈ 32.7 µM) to reach half-maximal inhibition (IC50). This compound returned an MIC in assay [1] of 1.56 µg/mL (≈ 5.61 µM).

Turning to `O=C1c2cccnc2-c2nccc3c2c1nc1ccccc13` [ASCIDIDEMIN], the Selectivity in the assay with Vero [2] is on record as below 0.4. Also, the IC50 in the assay with Vero [3] was below 0.04 µg/mL. For the same compound, it took 0.1 µg/mL (≈ 0.353 µM) to inhibit growth in assay [1] (MIC).

On to `CN(C)CCc1c2c(nc3ccccc13)C(=O)c1ccccc1C2=O`, for which the Selectivity in the assay with Vero [2] turned out to be 4.5. The compound further showed an IC50 with Vero [3] of 3.5 µg/mL (≈ 10.6 µM). In addition, it took 0.78 µg/mL (≈ 2.36 µM) to inhibit growth in assay [1] (MIC).

Consider `CN(C)/C=C/c1c2c(nc3ccccc13)C(=O)c1ccccc1C2=O`, for which the Selectivity in the assay on Vero [2] turned out to be 15.1. Also, half-maximal inhibition with Vero [3] (IC50) required 5.9 µg/mL (≈ 18 µM). Moreover, the lowest concentration to inhibit growth in assay [1] (MIC) was 0.39 µg/mL (≈ 1.19 µM).

In assay [1], `O=C(O)c1cn(C2CC2)c2cc(N3CCNCC3)c(F)cc2c1=O` [CIPROFLOXACIN] displayed an MIC below 0.2 µg/mL.

As for `CN(C)CCc1c2c(nc3ccccc13)C(=O)c1cccnc1C2=O`, in the assay with Vero [2], the Selectivity stood at 0.45. In the assay with Vero [3], this compound came in with a half-maximal inhibitory concentration (IC50) of 1.4 µg/mL (≈ 4.22 µM). In addition, the minimal inhibitory concentration (MIC) in assay [1] came out at 3.13 µg/mL (≈ 9.45 µM).

In assay [1], `CC[C@@H](CO)NCCN[C@@H](CC)CO` [ETHAMBUTOL] yielded an MIC below 0.2 µg/mL.

On to `Cc1c2c(nc3ccccc13)C(=O)c1cccnc1C2=O`, for which, in the assay on Vero [4], the IC50 result is “Poor solubility”. This compound also had a minimum inhibitory concentration (MIC) in assay [1] of 6.25 µg/mL (≈ 22.8 µM). Also, the Selectivity entry in the assay with Vero [5] is listed as “Poor solubility”.

Regarding `C=C(C=O)c1c2c(nc3ccccc13)C(=O)c1ccccc1C2=O`, in the assay with Vero [4], the half-maximal inhibitory concentration (IC50) entry is “Poor solubility”. Also, inhibition of growth in assay [1] (MIC) required 0.2 µg/mL (≈ 0.638 µM). Also, the Selectivity result in the assay on Vero [5] is reported as “Poor solubility”.

Regarding `Cc1c2c(nc3ccccc13)C(=O)c1ccccc1C2=O`, the IC50 result in the assay on Vero [4] is listed as “Poor solubility”. Besides, in assay [1], the MIC was found to be 1.56 µg/mL (≈ 5.71 µM). Besides, the Selectivity entry with Vero [5] is reported as “Poor solubility”.

`NNC(=O)c1ccncc1` [ISONIAZID]: the minimal inhibitory concentration (MIC) in assay [1] is below 0.2 µg/mL.

Consider `CO[C@H]1/C=C/O[C@@]2(C)Oc3c(C)c(O)c4c(O)c(c(/C=N/N5CCN(C)CC5)c(O)c4c3C2=O)NC(=O)/C(C)=C\C=C\[C@H](C)[C@H](O)[C@@H](C)[C@@H](O)[C@@H](C)[C@H](OC(C)=O)[C@@H]1C` [RIFAMPIN], for which the Selectivity in the assay with Vero [2] came out at 400. This compound also had a minimum inhibitory concentration (MIC) in assay [6] of 0.25 µg/mL (≈ 0.304 µM). In addition, the IC50 in the assay on Vero [3] is 100 µg/mL (≈ 122 µM).
